Source: patent publication US10399948B2, “Negative allosteric modulators of metabotropic glutamate receptor 3” (Vanderbilt University, priority 2015, dated 2019)
Like-named read-outs stand apart in the source and are kept apart here.

How the values were obtained:
Assay type in all cases: cell-based
rat mGlu3 = rat mGlu3 (Rattus norvegicus (Rat), UniProt P31422); assay: mGlu3 Ca2+ flux assay; conditions: for IC50: NAM, glutamate EC80, >10,000 = decrease without plateau, >30,000 = no measurable activity; for remaining activity at 30 µM: read-out: rat mGlu3 Glu max (%)
rat mGlu3, sequence (P31422 23-879): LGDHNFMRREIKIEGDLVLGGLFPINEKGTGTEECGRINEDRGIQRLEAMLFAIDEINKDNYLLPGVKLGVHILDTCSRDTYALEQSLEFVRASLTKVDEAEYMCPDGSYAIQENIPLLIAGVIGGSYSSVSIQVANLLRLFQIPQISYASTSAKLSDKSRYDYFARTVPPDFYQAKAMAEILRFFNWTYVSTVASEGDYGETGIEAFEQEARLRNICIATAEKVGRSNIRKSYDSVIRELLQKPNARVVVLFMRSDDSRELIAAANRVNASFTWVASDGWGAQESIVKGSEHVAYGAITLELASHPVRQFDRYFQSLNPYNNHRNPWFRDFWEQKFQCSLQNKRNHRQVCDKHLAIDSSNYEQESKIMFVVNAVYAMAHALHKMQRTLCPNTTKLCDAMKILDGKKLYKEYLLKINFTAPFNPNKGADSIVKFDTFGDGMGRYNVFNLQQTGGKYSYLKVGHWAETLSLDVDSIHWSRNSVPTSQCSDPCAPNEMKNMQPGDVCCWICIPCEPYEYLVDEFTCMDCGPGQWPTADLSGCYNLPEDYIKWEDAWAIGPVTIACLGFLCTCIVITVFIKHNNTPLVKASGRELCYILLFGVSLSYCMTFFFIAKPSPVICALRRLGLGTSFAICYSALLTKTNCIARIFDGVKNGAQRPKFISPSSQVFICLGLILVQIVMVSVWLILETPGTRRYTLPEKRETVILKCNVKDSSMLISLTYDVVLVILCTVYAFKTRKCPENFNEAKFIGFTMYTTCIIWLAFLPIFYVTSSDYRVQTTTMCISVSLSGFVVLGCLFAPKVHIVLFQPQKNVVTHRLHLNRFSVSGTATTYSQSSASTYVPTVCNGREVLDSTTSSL
Method: Gα15/TREx cells stably expressing rat mGlu3 were plated in black-walled, clear-bottomed, poly-D-lysine coated 384-well plates in 20 μL of assay medium (DMEM containing 10% dialyzed FBS, 20 mM HEPES, 25 ng/mL tetracycline, 100 units/mL penicillin/streptomycin plus 250 ng/mL Fungizone, and 1 mM sodium pyruvate) at a density of 15K cells/well. The cells were grown overnight at 37° C. in the presence of 5% CO2. […] Dye was removed, 20 μL of assay buffer was added, and the plate was incubated for 10 minutes at room temperature.
(§1) Ca^2+ flux was measured using the Functional Drug Screening System (FDSS7000, Hamamatsu, Japan). After establishment of a fluorescence baseline for about 3 seconds, the compounds of the present invention were added to the cells, and the response in cells was measured. 2.3 minutes later an EC20 concentration of the mGlu3 receptor agonist glutamate was added to the cells, and the response of the cells was measured for 1.9 minutes; an EC80 concentration of agonist was added and readings taken for an additional 1.7 minutes. All test compounds were dissolved and diluted to a concentration of 10 mM in 100% DMSO. Compounds were then serially diluted 1:3 in DMSO into 10 point concentration response curves, transferred to daughter plates, and further diluted into assay buffer to a 2× stock. Calcium fluorescence measures were recorded as fold over basal fluorescence; raw data was then normalized to the maximal response to glutamate.
(§2) The raw data file containing all time points was used as the data source in the analysis template. This was saved by the FDSS as a tab-delimited text file. Data were normalized using a static ratio function (F/F0) for each measurement of the total 360 values per well divided by each well's initial value. Data were then reduced to peak amplitudes (Max−Initial Min) using a time range that starts approximately 3 seconds prior to the glutamate EC80 addition and continues for approximately 90 seconds. This is sufficient time to capture the peak amplitude of the cellular calcium response. Individual amplitudes were expressed as % EMax by multiplying each amplitude by 100 and then dividing the product by the mean of the amplitudes derived from the glutamate ECMax-treated wells. EC50 values for test compounds were generated by fitting the normalized values versus the log of the test compound concentration (in mol/L) using a 4 parameter logistic equation where none of the parameters were fixed. Each of the three values collected at each concentration of test compound were weighted evenly.

rat mGlu2 = rat mGlu2 (Rattus norvegicus (Rat), UniProt P31421); assay: mGlu2 Ca2+ flux assay; conditions: NAM, glutamate EC80; >30,000 = no measurable activity
rat mGlu2, sequence (P31421 19-872): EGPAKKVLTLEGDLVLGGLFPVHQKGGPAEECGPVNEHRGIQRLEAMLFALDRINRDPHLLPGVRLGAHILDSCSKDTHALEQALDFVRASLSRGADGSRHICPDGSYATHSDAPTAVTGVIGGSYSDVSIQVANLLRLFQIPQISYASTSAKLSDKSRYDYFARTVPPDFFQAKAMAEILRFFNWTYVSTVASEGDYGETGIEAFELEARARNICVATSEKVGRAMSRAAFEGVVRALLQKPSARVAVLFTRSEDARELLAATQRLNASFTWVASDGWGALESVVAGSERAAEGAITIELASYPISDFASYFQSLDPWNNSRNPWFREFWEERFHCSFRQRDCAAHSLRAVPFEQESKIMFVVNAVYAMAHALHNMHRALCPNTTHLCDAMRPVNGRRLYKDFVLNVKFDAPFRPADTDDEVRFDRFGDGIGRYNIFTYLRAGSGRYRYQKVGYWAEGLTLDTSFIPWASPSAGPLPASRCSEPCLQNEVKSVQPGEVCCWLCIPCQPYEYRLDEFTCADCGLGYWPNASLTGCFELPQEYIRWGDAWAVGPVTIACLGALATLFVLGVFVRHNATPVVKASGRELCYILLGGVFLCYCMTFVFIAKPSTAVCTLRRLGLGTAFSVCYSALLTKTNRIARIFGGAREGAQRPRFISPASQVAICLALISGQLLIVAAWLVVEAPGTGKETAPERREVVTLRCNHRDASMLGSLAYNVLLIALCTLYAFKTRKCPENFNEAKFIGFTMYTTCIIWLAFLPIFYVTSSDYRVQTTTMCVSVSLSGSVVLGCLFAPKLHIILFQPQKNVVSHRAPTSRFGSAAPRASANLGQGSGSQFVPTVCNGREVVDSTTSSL
Method: (§3) Gα15 HEK293 cells stably expressing rat mGlu2 were plated in black-walled, clear-bottomed, poly-D-lysine coated 384-well plates in 20 μL of assay medium (DMEM containing 10% dialyzed FBS, 20 mM HEPES, and 1 mM sodium pyruvate) at a density of 12K cells/well. The cells were grown overnight at 37° C. in the presence of 5% CO2. The next day, medium was removed and the cells incubated with 20 μL of […] Fluo-4, AM prepared as a 2.3 mM stock in DMSO and mixed in a 1:1 ratio with 10% (w/v) pluronic acid F-127 and diluted in assay buffer (Hank's balanced salt solution, 20 mM HEPES, and 2.5 mM probenecid) for 45 minutes at 37° C. Dye was removed, 20 μL of assay buffer was added, and the plate was incubated for 5 minutes at room temperature.
as §1, with “mGlu2” for “mGlu3”
as §2, with “ECMax” for “EMax”, “IC50” for “EC50”

rat mGlu5 = rat mGlu5 (Rattus norvegicus (Rat), UniProt P31424); assay: mGlu5 Ca2+ flux assay; conditions: for EC50: glutamate EC20, >10,000 = no plateau, >30,000 = no measurable activity, read-out: rat mGlu5 EC50 or IC50; for activity at 30 µM: read-out: rat mGlu5 Glu max (%)
rat mGlu5, sequence (P31424 21-1203): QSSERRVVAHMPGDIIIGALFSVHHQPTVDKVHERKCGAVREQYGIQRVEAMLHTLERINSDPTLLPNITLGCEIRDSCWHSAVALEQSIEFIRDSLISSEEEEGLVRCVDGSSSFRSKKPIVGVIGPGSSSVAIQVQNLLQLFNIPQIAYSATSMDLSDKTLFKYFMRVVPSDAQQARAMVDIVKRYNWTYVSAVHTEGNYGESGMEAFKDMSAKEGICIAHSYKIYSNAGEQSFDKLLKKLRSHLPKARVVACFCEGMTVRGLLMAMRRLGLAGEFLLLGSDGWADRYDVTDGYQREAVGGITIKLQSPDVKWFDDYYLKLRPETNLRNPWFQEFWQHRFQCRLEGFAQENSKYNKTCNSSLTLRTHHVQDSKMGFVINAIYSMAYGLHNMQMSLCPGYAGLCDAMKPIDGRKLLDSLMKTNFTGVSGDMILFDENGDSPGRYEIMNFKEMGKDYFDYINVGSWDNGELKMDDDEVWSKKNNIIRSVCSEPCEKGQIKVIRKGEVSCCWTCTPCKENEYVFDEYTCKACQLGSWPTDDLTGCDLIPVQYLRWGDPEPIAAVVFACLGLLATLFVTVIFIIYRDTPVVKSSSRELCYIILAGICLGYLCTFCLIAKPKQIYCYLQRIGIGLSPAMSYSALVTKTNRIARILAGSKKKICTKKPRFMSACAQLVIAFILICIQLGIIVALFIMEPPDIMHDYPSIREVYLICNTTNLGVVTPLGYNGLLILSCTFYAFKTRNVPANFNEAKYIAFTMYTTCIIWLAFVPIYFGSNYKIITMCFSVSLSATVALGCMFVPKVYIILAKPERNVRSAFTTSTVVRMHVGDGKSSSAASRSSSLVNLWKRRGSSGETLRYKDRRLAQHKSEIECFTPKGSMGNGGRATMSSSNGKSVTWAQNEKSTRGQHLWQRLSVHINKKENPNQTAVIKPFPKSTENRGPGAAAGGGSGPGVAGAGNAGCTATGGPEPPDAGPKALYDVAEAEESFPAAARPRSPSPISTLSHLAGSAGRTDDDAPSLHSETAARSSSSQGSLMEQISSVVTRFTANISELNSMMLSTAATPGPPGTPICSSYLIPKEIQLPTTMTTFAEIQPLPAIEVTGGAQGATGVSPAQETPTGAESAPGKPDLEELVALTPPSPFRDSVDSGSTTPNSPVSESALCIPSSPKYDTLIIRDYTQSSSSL
Method: as §3, with “HEK 293A cells stably” for “Gα15 HEK293 cells stably”, “expressing rat mGlu5 were plated” for “expressing rat mGlu2 were plated”, “mM HEPES, 100 units/mL penicillin/streptomycin plus 250 ng/mL Fungizone, and 1” for “mM HEPES, and 1”, “density of 20K cells/well. The” for “density of 12K cells/well. The”
as §1, with “mGlu5” for “mGlu3”
as §2, with “EC20/EC80” for “EC80”, “90-120” for “90”

[1] = response at 30 μM test compound as percentage of maximal response to glutamate
[2] = PAM, response at 30 μM test compound as percentage of maximal response to glutamate

| SMILES | IC50 (rat mGlu3) [nM] | remaining activity at 30 µM (rat mGlu3; [1]) [%] | IC50 (rat mGlu2) [nM] | EC50 (rat mGlu5; PAM) [nM] | activity at 30 µM (rat mGlu5; [2]) [%] | remaining activity at 30 µM (rat mGlu3) [%] | activity at 30 µM (rat mGlu5) [%] |
| --- | --- | --- | --- | --- | --- | --- | --- |
| CC(COc1ccn(-c2ccc(F)cc2)c(=O)c1)Oc1ccccc1 (stereo not shown) [Compound 1, 1-(4-Fluorophenyl)-4-(2-phenoxypropoxy)pyridin-2(1H)-one] | 728 | 0.69 | > 30000 | > 30000 |  |  |  |
| CC(COc1ccccc1)Oc1ccn(-c2ccc(F)cc2)c(=O)c1 (stereo not shown) [Compound 5, 1-(4-fluorophenyl)-4-((1-phenoxypropan-2-yl)oxy)pyridin-2(1H)-one] | 1160 | 1.6 | > 30000 | > 10000 | 42.5 |  |  |
| O=c1nc(OCCOc2ccccc2)ccn1-c1cccc(F)c1 [Compound 14, 1-(3-fluorophenyl)-4-(2-phenoxyethoxy)pyrimidin-2(1H)-one] | 296 | 1.61 | > 30000 | 3540 | 77.5 |  |  |
| O=c1nc(OCCOc2ccccc2)ccn1-c1ccc(F)c(F)c1 [Compound 15, 1-(3,4-difluorophenyl)-4-(2-phenoxyethoxy)pyrimidin-2(1H)-one] | 219 | 2.44 | > 30000 | 427 | 83 |  |  |
| O=c1nc(OCCOc2ccccc2)ccn1-c1ccc(F)cc1 [Compound 17, 1-(4-Fluorophenyl)-4-(2-phenoxyethoxy)pyrimidin-2(1H)-one] | 211 | 1.84 | > 30000 | 1190 | 96.8 |  |  |
| O=c1cc(OCCOc2ccccc2)ccn1-c1cc(F)cc(F)c1 [Compound 21, 1-(3,5-difluorophenyl)-4-(2-phenoxyethoxy)pyridin-2(1H)-one] | 799 |  |  | 818 |  | 7.25 | 28.3 |
| O=c1cc(OCCOc2cncc(Cl)c2)ccn1-c1ccc(F)cc1 [Compound 46, 4-(2-((5-chloropyridin-3-yl)oxy)ethoxy)-1-(4-fluorophenyl)pyridin-2(1H)-one] | 2790 | 0.41 | > 30000 |  |  |  |  |
| O=c1cc(OCCOc2cnccc2Cl)ccn1-c1ccc(F)cc1 [Compound 47, 4-(2-((4-chloropyridin-3-yl)oxy)ethoxy)-1-(4-fluorophenyl)pyridin-2(1H)-one] | > 10000 | 36.7 | > 30000 |  |  |  |  |
| O=c1cc(OCCOc2cccnc2Cl)ccn1-c1ccc(F)cc1 [Compound 48, 4-(2-((2-chloropyridin-3-yl)oxy)ethoxy)-1-(4-fluorophenyl)pyridin-2(1H)-one] | 5560 | -2.79 | > 30000 |  |  |  |  |
| O=c1cc(OCCOc2ccccn2)ccn1-c1ccc(F)cc1 [Compound 50, 1-(4-fluorophenyl)-4-(2-(pyridin-2-yloxy)ethoxy)pyridin-2(1H)-one] | 1940 | -0.52 | > 30000 |  |  |  |  |
| O=c1cc(OCCOc2ncccc2F)ccn1-c1ccc(F)cc1 [Compound 51, 1-(4-fluorophenyl)-4-(2-((3-fluoropyridin-2-yl)oxy)ethoxy)pyridin-2(1H)-one] | 1280 | 0.2 | > 30000 |  |  |  |  |
| O=c1cc(OCCOc2ccc(F)cn2)ccn1-c1ccc(F)cc1 [Compound 52, 1-(4-fluorophenyl)-4-(2-((5-fluoropyridin-2-yl)oxy)ethoxy)pyridin-2(1H)-one] | 1060 | 0.26 | > 30000 |  |  |  |  |
| O=c1cc(OCCOc2cccc(Cl)n2)ccn1-c1ccc(F)cc1 [Compound 53, 4-(2-((6-chloropyridin-2-yl)oxy)ethoxy)-1-(4-fluorophenyl)pyridin-2(1H)-one] | 4270 | -1.66 | > 30000 |  |  |  |  |
| N#Cc1cccnc1OCCOc1ccn(-c2ccc(F)cc2)c(=O)c1 [Compound 56, 2-(2-((1-(4-fluorophenyl)-2-oxo-1,2-dihydropyridin-4-yl)oxy)ethoxy)nicotinonitrile] | > 10000 | 18 | > 30000 |  |  |  |  |
| N#Cc1ccc(OCCOc2ccn(-c3ccc(F)cc3)c(=O)c2)nc1 [Compound 58, 6-(2-((1-(4-fluorophenyl)-2-oxo-1,2-dihydropyridin-4-yl)oxy)ethoxy)nicotinonitrile] | 1380 | 1.06 | > 30000 |  |  |  |  |
| N#Cc1cccc(OCCOc2ccn(-c3ccc(F)cc3)c(=O)c2)n1 [Compound 59, 6-(2-((1-(4-fluorophenyl)-2-oxo-1,2-dihydropyridin-4-yl)oxy)ethoxy)picolinonitrile] | > 10000 | 35.9 | > 30000 |  |  |  |  |
